Where “and” joins values, the source holds several entries; their conditions need not be identical. Identical values can stand only once. Like-named read-outs stand apart in the source and are kept apart here.
Legend:
MRSA 19449 = experiment: MIC determination (microdilution), MRSA 19449; type: cell-based, Staphylococcus aureus; conditions: Staphylococcus aureus, MRSA, no precipitation
Method: (§1) Determination of MIC values, i.e., intrinsic antibacterial activity, of products and antibiotics (oxacillin, ampicillin, vancomycin, ciprofloxacin, and erythromycin) in the presence and absence of compounds tested was conducted by the use of a standard 2-fold microdilution method in cation-adjusted Mueller Hinton broth following the Clinical and Laboratory Standards Institute (CLSI) guidelines. The MIC values were detected using an Infinite M200 pro Tecan microplate reader (Tecan® France, SA-Lyon, France). MIC determinations were conducted in 96-well microtiter plates and repeated 3–4 times.
(§2) Initially, MICs of a series of imidazolone derivatives were assessed against susceptible (reference) and MDR strains of staphylococci. Next, MIC values of the aforementioned antibiotics were determined in the absence and presence of imidazolone derivatives to assess the chemosensitizing effect of these compounds. […] 5-arylideneimidazolones and 5-arylidenethiazolones, which precipitated after addition to bacterial suspension in MH II medium, were tested at the highest concentrations at which precipitation was not observed. […] Antibacterial activity of compounds and antibiotics ampicillin, vancomycin, ciprofloxacin, and erythromycin was recorded as the lowest concentration of molecules able to inhibit bacterial growth after 18 h incubation at 37 °C. The incubation of bacterial strains exposed to oxacillin paired with compounds tested was conducted at 35 °C and extended to 24 h due to frequent occurrence of heterogeneity among MRSA strains. The results are presented as activity gain (A) parameter which was calculated as ratio of MIC of a certain antibiotic (MICAnt) to its MICAnt+Comp, observed in combination with a tested compound (7, 12–16, 19, or 20; Equation (1)). (1) A=(MICAnt/MICAnt+Comp)

[1] = Stability in acidic and basic conditions (TLC); type: physicochemical; conditions: for Number of TLC spots: 1 = stable
Method: Compounds 9–12, 15, and 19 were also tested for their stability in acidic and basic conditions. This assay was carried out for 48 h and samples were taken at six-time intervals (10 min, 1 h, 2 h, 3 h, 24 h, 48 h). Stability of the compounds was determined using the TLC method. […] In basic conditions, only compounds 10 and 15 were stable for 24 h. […] Results with details, including time of degradation of products obtained, are presented in the Supplementary (Tables S19 and S20). […]
VI. Stability in different pH conditions
Stability of chosen compounds (9-12, 15, and 19) were determined using the TLC method. Assays were performed in acidic and basic conditions and were carried out for 48 h. Samples were taken at six-time intervals (10 min., 1 h, 2 h, 3 h, 24 h, 48 h). […]
of spots observed on TLC, where 1 indicate that compound is stable (only TLC spot for proper compound was observed). Higher values point out how many products of degradation was observed, which can be calculating by subtracting one from number of spots.
Table S19. Results of chosen compounds (9-12, 15, 19) stability in acidic conditions.
Compound Number of TLC spots in defined time
Table S20. Results of chosen compounds (9-12, 15, 19) stability in basic conditions.

[2] = Water solubility (UV spectroscopy); type: physicochemical
Text: Six representatives of 5-arylideneimidazolones (9–12, 15, 19) were chosen for the determination of water solubility. UV spectroscopy was used for the estimation of concentrations of compounds according to the method described earlier. Acquired UV absorbance, calculated means, and standard deviations for tested compounds are presented in Supplementary Table S18. Solubility results, presented in Table 6, point out that compounds from the same group (A or B, Table 1 and Table 2) with the two-ring aromatic moiety are more soluble than compounds with the fluorene motive (Group A: 9, 10, 11 vs. 12; Group B: 15 vs. 19). […] The most soluble of tested compounds was compound 15, which could be dissolved in water at a concentration of up to 205.502 mM/L.
Water solubility was obtained using UV spectroscopy method. Absorbance of tested solutions of compounds 9-12, 15, and 19, respectively in suitable dilution, in three repetitions as well as calculated arithmetic means, solubility and standard deviations are presented in Table S18. the solubility results […]
Table S18. Results of absorbance used for estimation of water solubility of tested compounds (9-12, 15, 19).
Abbreviations: A1, A2,and A3, UV absorbance in first, second, and third repetition; Amean, arithmetic mean of absorbance from three repetitions; s, standard deviation for absorbance; S, water solubility; SD – standard deviation for solubility. […]

S. aureus ATCC 25923 [3] = experiment: MIC determination (microdilution), S. aureus ATCC 25923; type: cell-based, Staphylococcus aureus; conditions: Staphylococcus aureus, ATCC25923, unstarred values of column MIC value/no precipitation; read-out: MIC value
Method: as §1, §2

K. aerogenes Ea-289 [4] = experiment: MIC reduction assay (antibiotic adjuvant), K. aerogenes Ea-289; type: cell-based, Klebsiella aerogenes;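 also: compound at no more than one quarter of its own MIC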
Method: At first, MIC values of compounds were determined (Table S15, Supplementary). Next, their abilities to reduce MICs of the AcrAB-TolC substrates doxycycline (a tetracycline-class antibiotic) and erythromycin were studied (Table S16, Supplementary).
(§3) A subset of compounds, namely 7, 12–16, 19, 20, was also examined for the potential to increase the effectiveness of the antibiotics chloramphenicol, erythromycin, doxycycline, and the fluoroquinolone antibiotic norfloxacin, which all are substrates for AcrAB-TolC in K. aerogenes. In addition to strain Ea-289, the adjuvant-like effect of the compounds was investigated in strain CM-64, which also overexpresses the AcrAB-TolC efflux pump, although it has no changes in porin content, and in the Ea-289 derivatives, i.e., Ea-294 and Ea-308, which are devoid of AcrAB (Table S17, Supplementary).
as §2
(§4) MIC values of 5-arylideneimidazolone derivatives were determined following CLSI recommendations as in the methods described for S. aureus (Section 3.3.1).

[5] = tested on: K. aerogenes Ea-289 (overexpression of AcrAB-TolC); experiment: MIC of compounds, K. aerogenes Ea-289; type: cell-based; conditions: Klebsiella aerogenes
Method: At first, MIC values of compounds were determined (Table S15, Supplementary). Next, their abilities to reduce MICs of the AcrAB-TolC substrates doxycycline (a tetracycline-class antibiotic) and erythromycin were studied (Table S16, Supplementary). […]
as §1, §4

[6] = tested on: K. aerogenes Ea-294, Ea-308 (devoid of AcrAB); experiment: MIC of compounds, K. aerogenes Ea-294, Ea-308; type: cell-based; conditions: Klebsiella aerogenes, read-out: Minimal Inhibitory Concentration (MIC)
Text: as §3, §1, §4

K. aerogenes Ea-289 [7] = tested on: K. aerogenes Ea-289; design: method as in earlier work; conditions: doxycycline, chloramphenicol, norfloxacin, already published, cited from earlier work
S. aureus ATCC 25923 [8] = tested on: S. aureus ATCC 25923; design: method as in earlier work; conditions: published previously, cited from earlier work
[9] = tested on: AcrAB-TolC efflux pump in K. aerogenes strain Ea-289; design: method as in PMID 30691112; conditions: compound 100 µM; previously described; cited from earlier work
S. aureus ATCC 25923 [10] = tested on: S. aureus ATCC 25923; design: method as in earlier work; conditions: starred (*) value; published previously; cited from earlier work
[11] = tested on: K. aerogenes Ea-294, Ea-308; design: method as in earlier work; conditions: doxycycline, chloramphenicol, norfloxacin, already published, cited from earlier work
K. aerogenes CM-64 = tested on: K. aerogenes CM-64; design: method as in earlier work; conditions: doxycycline, chloramphenicol, norfloxacin, already published, cited from earlier work
[12] = tested on: K. aerogenes CM-64 (overexpression of AcrAB-TolC); experiment: MIC of compounds, K. aerogenes CM-64; type: cell-based; conditions: Klebsiella aerogenes, read-out: Minimal Inhibitory Concentration (MIC)
Text: as §3, §1, §4

[13] = read-out: MIC value/no precipitation

| SMILES | melting point [°C] | MIC (MRSA 19449) [µM] | Number of TLC spots ([1]; acidic conditions, 10 min) | Number of TLC spots ([1]; acidic conditions, 1 h) | Number of TLC spots ([1]; acidic conditions, 2 h) | Number of TLC spots ([1]; acidic conditions, 3 h) | Number of TLC spots ([1]; acidic conditions, 24 h) | Number of TLC spots ([1]; acidic conditions, 48 h) | Number of TLC spots ([1]; basic conditions, 10 min) | Number of TLC spots ([1]; basic conditions, 1 h) | Number of TLC spots ([1]; basic conditions, 2 h) | Number of TLC spots ([1]; basic conditions, 3 h) | Number of TLC spots ([1]; basic conditions, 24 h) | Number of TLC spots ([1]; basic conditions, 48 h) | solubility [2] | MIC (S. aureus ATCC 25923 [3]) [µM] | A (activity gain) (K. aerogenes Ea-289 [4]; doxycycline) | A (activity gain) (K. aerogenes Ea-289 [4]; erythromycin) | MIC [5, 13] [µM] | further results |
| --- | --- | --- | --- | --- | --- | --- | --- | --- | --- | --- | --- | --- | --- | --- | --- | --- | --- | --- | --- | --- |
| Cl.O=C1N=C(N2CCC(N3CCOCC3)CC2)N/C1=C\c1cccc2ccccc12 (hydrate or solvate) [Compound 11, (Z)-5-(Naphthalen-1-ylmethylene)-2-(4-Morpholinopiperidin-1-yl)-Imidazol-4(5H)-one Hydrochloride] | 244 to 249 |  |  |  |  |  |  |  |  |  |  |  |  |  |  |  |  |  |  |  |
| O=C1NC(N2CCC(N3CCOCC3)CC2)=N/C1=C\c1cccc(Oc2ccccc2)c1 [Compound 9] |  | 31.2 to 250 | 2 | 2 | 2 | 2 | 2 | 2 | 2 | 2 | 2 | 2 | 2 | 2 | 1480 µg/mL and 3170 µM | 31.2 to 250 | 1 | 1 | > 250 |  |
| O=C1NC(N2CCC(N3CCOCC3)CC2)=N/C1=C\c1ccc(Oc2ccccc2)cc1 [Compound 10] |  | 31.2 to 250 | 1 | 1 | 1 | 1 | 1 | 2 | 1 | 1 | 1 | 1 | 1 | 2 | 2680 µg/mL and 5740 µM |  | 1 | 1 | > 250 | time stable ([1]; basic conditions): 24 h |
| Cl.O=C1N=C(N2CCC(N3CCOCC3)CC2)N/C1=C\c1cccc2ccccc12 [Compound 11, (Z)-5-(Naphthalen-1-ylmethylene)-2-(4-Morpholinopiperidin-1-yl)-Imidazol-4(5H)-one Hydrochloride] |  | 31.2 to 250 | 1 | 1 | 1 | 1 | 1 | 2 | 1 | 2 | 2 | 2 | 2 | 2 | 20200 µg/mL and 47300 µM | 31.2 to 250 | 1 | 1 | > 250 |  |
| Cl.NC1=N/C(=C\c2cccc3ccccc23)C(=O)N1CCCN1CCOCC1 [Compound 18, (Z)-5-(Naphthalen-1-ylmethylene)-2-Amino-3-(3-Morpholinopropyl)-Imidazol-4(5H)-one Hydrochloride] | 265 to 268 | 2000 |  |  |  |  |  |  |  |  |  |  |  |  |  | 1000 | 1 | 1 | > 250 |  |
| NC1=N/C(=C\c2c3ccccc3cc3ccccc23)C(=O)N1CCCN1CCOCC1 [Compound 20] |  | 31.2 to 250 |  |  |  |  |  |  |  |  |  |  |  |  |  | 31.2 to 250 |  |  |  | MIC [6]: 2000 µM; MIC reduction (K. aerogenes Ea-289 [7]; erythromycin + compound): No effect; A (activity gain) (K. aerogenes Ea-289 [7]; erythromycin): 1; MIC reduction (S. aureus ATCC 25923 [8]; oxacillin alone to oxacillin + compound): No effect; A (activity gain) (S. aureus ATCC 25923 [8]; oxacillin): 1; Inhibition efficiency (IE) towards extrusion of 1,2'-dNA [9]: 44%; no precipitation: highest possible concentration of a compound (due to precipitation) at which growth of bacteria was observed (S. aureus ATCC 25923 [10]): 0.0625 mM; MIC reduction ([11]; erythromycin + compound): No effect; A (activity gain) ([11]; erythromycin): 1; MIC reduction (K. aerogenes CM-64; erythromycin + compound): No effect; A (activity gain) (K. aerogenes CM-64; erythromycin): 1; MIC [12]: > 2000 µM; MIC ([5]; read-out: Minimal Inhibitory Concentration (MIC)): > 2000 µM |
| Cl.O=C1N=C(N2CCC(N3CCOCC3)CC2)S/C1=C\c1ccc2c(c1)Cc1ccccc1-2 [Compound 22, (Z)-5-((9H-Fluoren-2-yl)methylene)-2-(4-Morpholinopiperidin-1-yl)Thiazol-4-one Hydrochloride] | 244 to 246 | 31.2 to 250 |  |  |  |  |  |  |  |  |  |  |  |  |  | 62.5 | 1 | 1 | > 250 |  |
| Cl.O=C1N=C(NCCCN2CCOCC2)S/C1=C\c1ccc2c(c1)Cc1ccccc1-2 [Compound 23, (Z)-5-((9H-Fluoren-2-yl)methylene)-2-((3-Morpholinopropyl)amino)Thiazol-4(5H)-one Hydrochloride] | 243 to 245 | 31.2 to 250 |  |  |  |  |  |  |  |  |  |  |  |  |  | 31.2 to 250 | 1 | 1 | > 62.5 |  |

From paper PMC7922564, “Molecular Insights into an Antibiotic Enhancer Action of New Morpholine-Containing 5-Arylideneimidazolones in the Fight against MDR Bacteria” (International Journal of Molecular Sciences, 2021)
